In brackets after ≈: the same amount, converted by molar mass.
What was measured:
[1] = Stability in human liver microsomes assessed as compound remaining after 30 mins; format: ADME, microsome; conditions: read-out: Stability
[2] = Solubility of the compound in phosphate buffered saline kept in shaker for 1 hr; format: physicochemical
[3] = Solubility of the compound in distilled water kept in shaker for 1 hr; format: physicochemical
[4] = Stability in rat liver microsomes assessed as compound remaining after 30 mins; format: ADME, microsome; conditions: read-out: Stability
[5] = tested on: HL-60; test: cells; conditions: Homo sapiens
Description: Growth inhibition of human HL60 cells harboring wild-type FLT3 by CCK8 assay

[6] = tested on: K562; test: cells; conditions: Homo sapiens
Description: Growth inhibition of FLT3 null human K562 cells by CCK8 assay

[7] = target: T1, Receptor-type tyrosine-protein kinase FLT3 (Homo sapiens, UniProt P36888); test: biochemical; format: cell-based
T1 sequence (P36888 whole entry): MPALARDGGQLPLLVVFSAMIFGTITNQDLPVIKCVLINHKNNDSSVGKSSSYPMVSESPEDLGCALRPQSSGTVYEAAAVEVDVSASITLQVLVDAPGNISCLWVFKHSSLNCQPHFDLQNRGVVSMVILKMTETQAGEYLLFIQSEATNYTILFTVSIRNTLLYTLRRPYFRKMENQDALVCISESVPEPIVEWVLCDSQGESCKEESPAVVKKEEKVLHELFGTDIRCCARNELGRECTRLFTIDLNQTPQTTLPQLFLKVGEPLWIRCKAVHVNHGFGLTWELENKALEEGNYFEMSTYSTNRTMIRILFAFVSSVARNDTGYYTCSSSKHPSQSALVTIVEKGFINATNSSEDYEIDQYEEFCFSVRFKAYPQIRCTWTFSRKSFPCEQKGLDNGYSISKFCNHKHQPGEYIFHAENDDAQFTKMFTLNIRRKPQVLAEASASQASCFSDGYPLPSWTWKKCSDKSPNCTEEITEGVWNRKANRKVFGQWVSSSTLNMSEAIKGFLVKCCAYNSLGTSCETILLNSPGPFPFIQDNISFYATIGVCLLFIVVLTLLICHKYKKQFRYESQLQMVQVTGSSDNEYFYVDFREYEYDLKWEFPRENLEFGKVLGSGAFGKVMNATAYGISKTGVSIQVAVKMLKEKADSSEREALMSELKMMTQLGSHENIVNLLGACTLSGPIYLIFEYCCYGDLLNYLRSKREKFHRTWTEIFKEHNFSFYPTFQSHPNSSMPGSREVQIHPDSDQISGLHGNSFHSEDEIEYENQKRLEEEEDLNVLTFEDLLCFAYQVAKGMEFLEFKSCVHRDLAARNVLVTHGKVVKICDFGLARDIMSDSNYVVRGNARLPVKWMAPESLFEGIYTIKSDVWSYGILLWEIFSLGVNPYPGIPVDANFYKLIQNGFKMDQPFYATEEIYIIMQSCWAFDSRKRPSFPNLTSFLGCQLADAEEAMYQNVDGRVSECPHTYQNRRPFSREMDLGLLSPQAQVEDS
Description: Inhibition of N-terminal GST-tagged recombinant human wild-type FLT3 (564 to end residues) expressed in baculovirus infected sf21 cells using Abltide as substrate in presence of [gamma33P]ATP after 10 mins by scintillation counting method

[8] = target: Receptor-type tyrosine-protein kinase FLT3 (Homo sapiens, UniProt P36888, D835Y); test: biochemical; format: cell-based
Description: Inhibition of N-terminal GST-tagged recombinant human wild-type FLT3 (564 to end residues) D835Y mutant expressed in baculovirus infected sf21 cells using Abltide as substrate in presence of [gamma33P]ATP after 10 mins by scintillation counting method

[9] = tested on: THP-1; test: cells; conditions: Homo sapiens
Description: Growth inhibition of human THP1 cells harboring wild-type FLT3 by XTT assay

[10] = tested on: MV4-11; test: cells; conditions: Homo sapiens
Description: Growth inhibition of human MV4-11 cells harboring FLT3-ITD mutant by XTT assay

Row | Structure (SMILES) | remaining at 0.5 h [1] | solubility at 1 h [2] | solubility at 1 h [3] | remaining at 0.5 h [4] | GI50 [5] | GI50 [6] | IC50 [7] | IC50 [8] | GI50 [9] | GI50 [10]
1 | CC1=CC(=O)N(Nc2nc(-c3cccs3)nc3sc(C)c(C)c23)C1=O | 32.4% | 1.04 µM (≈ 0.385 µg/mL) | 1.28 µM (≈ 0.474 µg/mL) | 22.7% | > 10000 nM | 102 nM |  |  |  | 
2 | CC1=CC(=O)N(Nc2nc(-c3cccs3)nc3sc(C)cc23)C1=O | 58.8% | 0.36 µM (≈ 0.128 µg/mL) | 5.84 µM (≈ 2.08 µg/mL) | 32.6% | > 10000 nM | 2570 nM |  |  |  | 
3 | CNCCOc1ccc(-c2sc3nc(-c4cccs4)nc(NN4C(=O)C=C(C)C4=O)c3c2C)cc1 |  |  |  |  |  |  | 11.1 nM |  |  | 
4 | CC1=CC(=O)N(Nc2nc(-c3ccc[nH]3)nc3sc(C)cc23)C1=O | 40.4% | 0.59 µM (≈ 0.2 µg/mL) | 10.1 µM (≈ 3.42 µg/mL) | 39.1% |  |  | 135 nM | 117 nM |  | 
5 | CC1=CC(=O)N(Nc2nc(-c3ccc(F)cc3)nc3sc(C)cc23)C1=O | 42.6% | < 0.14 µM | < 0.14 µM | 8.58% |  |  | 274 nM | 266 nM |  | 
6 | CC1=CC(=O)N(Nc2nc(-c3ccc[nH]3)nc3sc(C)c(C)c23)C1=O | 37.1% | 0.16 µM (≈ 0.0565 µg/mL) | 0.87 µM (≈ 0.307 µg/mL) | 39.7% | > 10000 nM | 1100 nM | 79.3 nM | 89.2 nM | 339 nM | 452 nM
7 | CC1=CC(=O)N(Nc2nc(-c3ccc(F)cc3)nc3sc(C)c(C)c23)C1=O | 20.7% | < 0.14 µM | < 0.14 µM | 19.6% |  |  | 211 nM | 172 nM |  | 
8 | CC1=CC(=O)N(Nc2nc(-c3ccco3)nc3sc(C)cc23)C1=O | 35.1% | 28.5 µM (≈ 9.69 µg/mL) | 40.6 µM (≈ 13.8 µg/mL) | 34.8% |  |  | 171 nM | 129 nM |  | 
9 | CC1=CC(=O)N(Nc2nc(-c3nccs3)nc3sc(C)cc23)C1=O | 27.5% | 2.8 µM (≈ 1 µg/mL) | 1.43 µM (≈ 0.511 µg/mL) | 14.5% | > 10000 nM | 1280 nM | 33.4 nM | 33.9 nM | 961 nM | 1350 nM
10 | CC1=CC(=O)N(Nc2nc(-c3ccco3)nc3sc(C)c(C)c23)C1=O | 10.9% | 12.4 µM (≈ 4.38 µg/mL) | 24.6 µM (≈ 8.73 µg/mL) | 26.2% |  |  | 100 nM | 102 nM |  | 
11 | CC1=CC(=O)N(Nc2nc(-c3nccs3)nc3sc(C)c(C)c23)C1=O | 45.7% | 36.8 µM (≈ 13.7 µg/mL) | 25.3 µM (≈ 9.41 µg/mL) | 17.7% | > 10000 nM | 532 nM | 16 nM | 21.4 nM | 141 nM | 216 nM

Reference: ChEMBL document CHEMBL4000222, “Synthetic strategy for increasing solubility of potential FLT3 inhibitor thieno[2,3-d]pyrimidine derivatives through structural modifications at the C2 and C6 positions” (Bioorg Med Chem Lett, 2017)
